From patent publication US4994376A, “Detection of bacteroides gingivalis” (priority 1987, dated 1991)
Read-outs that look alike come from different tables or passages of the source. Peptide text beside a SMILES is read from it. * marks the point of attachment. βNA = c1ccc2cc(N*)ccc2c1

Assays:
Format in all cases: biochemical
B. asaccharolyticus = details: β-naphthylamine liberated after 60 minutes, 37° C.
Summary of the method: (§1)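 N-CBz-glycyl-glycyl-L-arginine-β-naphthylamide was hydrolysed for 1 hour at 37 °C, then coupled with Fast Garnet GBC (0.5 mg/ml) in 1M acetic acid buffer, pH 4.2, containing 10% Tween 20. After 15 minutes at room temperature, absorbance was read at 525 nm against a no-enzyme blank; activity is given as nmol β-naphthylamine released per 60 min.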

B. levii = details: β-naphthylamine liberated after 60 minutes, 37° C.
Summary of the method: as §1

B. loescheii = details: β-naphthylamine liberated after 60 minutes, 37° C.
Summary of the method: as §1

B. mel. ss. intermedius = details: β-naphthylamine liberated after 60 minutes, 37° C.
Summary of the method: as §1

Bacteroides gingivalis = details: β-naphthylamine liberated after 60 minutes, 37° C.
Summary of the method: as §1

C. ochracea = details: strain ATCC 27872; β-naphthylamine liberated after 60 minutes, 37° C.
Summary of the method: as §1

[1] = system: Capnocytophaga gingivalis; details: strain ATCC 33624; β-naphthylamine liberated after 60 minutes, 37° C.
Summary of the method: as §1

Capnocytophaga sp. = details: strain JD3-5; β-naphthylamine liberated after 60 minutes, 37° C.
Summary of the method: as §1

B. corporis = assay: Aminopeptidase activity on β-naphthylamide substrates; details: strain ATCC 33547; β-naphthylamine liberated after 60 minutes, 37° C.
Summary of the method: as §1

B. denticola = assay: as above; details: strain ATCC 33185; β-naphthylamine liberated after 60 minutes, 37° C.
Summary of the method: as §1

B. intermedius = assay: as above; details: strain ATCC 25611; β-naphthylamine liberated after 60 minutes, 37° C.
Summary of the method: as §1

B. melaninogenicus = assay: as above; details: strain ATCC 25845; β-naphthylamine liberated after 60 minutes, 37° C.
Summary of the method: as §1

C. sputigena = assay: as above; details: strain ATCC 33123; β-naphthylamine liberated after 60 minutes, 37° C.
Summary of the method: as §1

A. seminis = details: strain ATCC 15768; β-naphthylamine liberated after 60 minutes, 37° C.
Summary of the method: (§2)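 Aminopeptidase values express the nanomoles of β-naphthylamine freed from N-CBz-glycyl-glycyl-L-arginine-β-naphthylamide during a 60-minute, 37° C incubation. The liberated amine was coupled with stabilized diazonium salt Fast Garnet GBC and measured at 525 nm against an enzyme-free blank.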

A. viscosus = details: β-naphthylamine liberated after 60 minutes, 37° C.
Summary of the method: as §2

Actinomyces israeli = details: β-naphthylamine liberated after 60 minutes, 37° C.
Summary of the method: as §2

Fusobacterium nucleatum = details: β-naphthylamine liberated after 60 minutes, 37° C.
Summary of the method: as §2

S. mutans = details: strain ATCC 25175; β-naphthylamine liberated after 60 minutes, 37° C.
Summary of the method: as §2

S. sanguis = details: β-naphthylamine liberated after 60 minutes, 37° C.
Summary of the method: as §2

V. parvula = details: strain ATCC 10790; β-naphthylamine liberated after 60 minutes, 37° C.
Summary of the method: as §2

Veillonella sp. = details: strain SE1M2; β-naphthylamine liberated after 60 minutes, 37° C.
Summary of the method: as §2

A. equuli = assay: Aminopeptidase activity on β-naphthylamide substrates; details: strain ATCC 19392; β-naphthylamine liberated after 60 minutes, 37° C.
Summary of the method: as §2

A. suis = assay: as above; details: strain ATCC 15557; β-naphthylamine liberated after 60 minutes, 37° C.
Summary of the method: as §2

F. periodonticum = assay: as above; details: strain EK1-15; β-naphthylamine liberated after 60 minutes, 37° C.
Summary of the method: as §2

Haemophilus aphrophilus = assay: as above; details: β-naphthylamine liberated after 60 minutes, 37° C.
Summary of the method: as §2

L. fermentum = assay: as above; details: strain ATCC 11581; β-naphthylamine liberated after 60 minutes, 37° C.
Summary of the method: as §2

Lactobacillus casei = assay: as above; details: β-naphthylamine liberated after 60 minutes, 37° C.
Summary of the method: as §2

S. salivarius = assay: as above; details: β-naphthylamine liberated after 60 minutes, 37° C.
Summary of the method: as §2

## CC(C)C[C@H](NC(=O)[C@@H]1CCCN1C(=O)CN)C(=O)Nc1ccc2ccccc2c1 [Gly-Pro-Leu] (H-Gly-Pro-Leu-βNA)
B. asaccharolyticus; strain 536B
  Aminopeptidase activity: 3 nmol
B. asaccharolyticus; strain ATCC 18569
  Aminopeptidase activity: 0 nmol
B. asaccharolyticus; strain ATCC 25260
  Aminopeptidase activity: 3 nmol
B. asaccharolyticus; strain ATCC 27067
  Aminopeptidase activity: 4 nmol
B. asaccharolyticus; strain NY446
  Aminopeptidase activity: 0 nmol
B. levii; strain 18-1-5
  Aminopeptidase activity: 1 nmol
B. levii; strain 18-1-8
  Aminopeptidase activity: 0 nmol
B. loescheii; strain ATCC 15930
  Aminopeptidase activity: 1 nmol
B. loescheii; strain VPI4196
  Aminopeptidase activity: 1 nmol
B. mel. ss. intermedius; strain ATCC 25261
  Aminopeptidase activity: 1 nmol
B. mel. ss. intermedius; strain ATCC 33563
  Aminopeptidase activity: 2 nmol
B. mel. ss. intermedius; strain NCTC 9336
  Aminopeptidase activity: 1 nmol
Bacteroides gingivalis; strain 9-14K-1
  Aminopeptidase activity: 0 nmol
Bacteroides gingivalis; strain 11-1-2
  Aminopeptidase activity: 2 nmol
Bacteroides gingivalis; strain 381
  Aminopeptidase activity: 0 nmol
Bacteroides gingivalis; strain 1021
  Aminopeptidase activity: 0 nmol
Bacteroides gingivalis; strain ATCC 33277
  Aminopeptidase activity: 0 nmol
Bacteroides gingivalis; strain FAYE 19m-1
  Aminopeptidase activity: 0 nmol
C. ochracea
  Aminopeptidase activity: 41 nmol
[1]
  Aminopeptidase activity: 58 nmol
Capnocytophaga sp.
  Aminopeptidase activity: 0 nmol
B. corporis
  Aminopeptidase activity: 2 nmol
B. denticola
  Aminopeptidase activity: 1 nmol
B. intermedius
  Aminopeptidase activity: 0 nmol
B. melaninogenicus
  Aminopeptidase activity: 2 nmol
C. sputigena
  Aminopeptidase activity: 28 nmol
A. seminis
  Aminopeptidase activity: 0 nmol
A. viscosus; strain ATCC 19246
  Aminopeptidase activity: 0 nmol
A. viscosus; strain T14V
  Aminopeptidase activity: 2 nmol
Actinomyces israeli; strain ATCC 12103
  Aminopeptidase activity: 0 nmol
Actinomyces israeli; strain DK2-3
  Aminopeptidase activity: 0 nmol
Fusobacterium nucleatum; strain 2
  Aminopeptidase activity: 0 nmol
Fusobacterium nucleatum; strain ATCC 25586
  Aminopeptidase activity: 2 nmol
Fusobacterium nucleatum; strain D31A-24
  Aminopeptidase activity: 2 nmol
S. mutans
  Aminopeptidase activity: 0 nmol
S. sanguis; strain ATCC 10556
  Aminopeptidase activity: 11 nmol
S. sanguis; strain ATCC 10557
  Aminopeptidase activity: 6 nmol
V. parvula
  Aminopeptidase activity: 0 nmol
Veillonella sp.
  Aminopeptidase activity: 0 nmol
A. equuli
  Aminopeptidase activity: 0 nmol
A. suis
  Aminopeptidase activity: 0 nmol
F. periodonticum
  Aminopeptidase activity: 1 nmol
Haemophilus aphrophilus; strain ATCC 13252
  Aminopeptidase activity: 0 nmol
Haemophilus aphrophilus; strain ATCC 19415
  Aminopeptidase activity: 0 nmol
Haemophilus aphrophilus; strain NCTC 5908
  Aminopeptidase activity: 0 nmol
L. fermentum
  Aminopeptidase activity: 0 nmol
Lactobacillus casei; strain ATCC 7469
  Aminopeptidase activity: 0 nmol
Lactobacillus casei; strain ATCC 11578
  Aminopeptidase activity: 0 nmol
Lactobacillus casei; strain ATCC 11582
  Aminopeptidase activity: 0 nmol
S. salivarius; strain ATCC 9759
  Aminopeptidase activity: 2 nmol
S. salivarius; strain ATCC 25975
  Aminopeptidase activity: 0 nmol

## CC(C)C[C@H](N)C(=O)NCC(=O)O [Leu-Gly, Leucyl-glycine] (H-Leu-Gly-OH)
B. asaccharolyticus; strain 536B
  Aminopeptidase activity: 49 nmol
B. asaccharolyticus; strain ATCC 18569
  Aminopeptidase activity: 25 nmol
B. asaccharolyticus; strain ATCC 25260
  Aminopeptidase activity: 37 nmol
B. asaccharolyticus; strain ATCC 27067
  Aminopeptidase activity: 51 nmol
B. asaccharolyticus; strain NY446
  Aminopeptidase activity: 0 nmol
B. levii; strain 18-1-5
  Aminopeptidase activity: 47 nmol
B. levii; strain 18-1-8
  Aminopeptidase activity: 51 nmol
B. loescheii; strain ATCC 15930
  Aminopeptidase activity: 20 nmol
B. loescheii; strain VPI4196
  Aminopeptidase activity: 58 nmol
B. mel. ss. intermedius; strain ATCC 25261
  Aminopeptidase activity: 9 nmol
B. mel. ss. intermedius; strain ATCC 33563
  Aminopeptidase activity: 2 nmol
B. mel. ss. intermedius; strain NCTC 9336
  Aminopeptidase activity: 11 nmol
Bacteroides gingivalis; strain 9-14K-1
  Aminopeptidase activity: 6 nmol
Bacteroides gingivalis; strain 11-1-2
  Aminopeptidase activity: 47 nmol
Bacteroides gingivalis; strain 381
  Aminopeptidase activity: 76 nmol
Bacteroides gingivalis; strain 1021
  Aminopeptidase activity: 16 nmol
Bacteroides gingivalis; strain ATCC 33277
  Aminopeptidase activity: 48 nmol
Bacteroides gingivalis; strain FAYE 19m-1
  Aminopeptidase activity: 6 nmol
C. ochracea
  Aminopeptidase activity: 9 nmol
[1]
  Aminopeptidase activity: 8 nmol
Capnocytophaga sp.
  Aminopeptidase activity: 0 nmol
B. corporis
  Aminopeptidase activity: 67 nmol
B. denticola
  Aminopeptidase activity: 42 nmol
B. intermedius
  Aminopeptidase activity: 10 nmol
B. melaninogenicus
  Aminopeptidase activity: 53 nmol
C. sputigena
  Aminopeptidase activity: 20 nmol
A. seminis
  Aminopeptidase activity: 0 nmol
A. viscosus; strain ATCC 19246
  Aminopeptidase activity: 0 nmol
A. viscosus; strain T14V
  Aminopeptidase activity: 0 nmol
Actinomyces israeli; strain ATCC 12103
  Aminopeptidase activity: 0 nmol
Actinomyces israeli; strain DK2-3
  Aminopeptidase activity: 0 nmol
Fusobacterium nucleatum; strain 2
  Aminopeptidase activity: 2 nmol
Fusobacterium nucleatum; strain ATCC 25586
  Aminopeptidase activity: 0 nmol
Fusobacterium nucleatum; strain D31A-24
  Aminopeptidase activity: 0 nmol
S. mutans
  Aminopeptidase activity: 0 nmol
S. sanguis; strain ATCC 10556
  Aminopeptidase activity: 0 nmol
S. sanguis; strain ATCC 10557
  Aminopeptidase activity: 0 nmol
V. parvula
  Aminopeptidase activity: 0 nmol
Veillonella sp.
  Aminopeptidase activity: 0 nmol
A. equuli
  Aminopeptidase activity: 0 nmol
A. suis
  Aminopeptidase activity: 0 nmol
F. periodonticum
  Aminopeptidase activity: 0 nmol
Haemophilus aphrophilus; strain ATCC 13252
  Aminopeptidase activity: 0 nmol
Haemophilus aphrophilus; strain ATCC 19415
  Aminopeptidase activity: 0 nmol
Haemophilus aphrophilus; strain NCTC 5908
  Aminopeptidase activity: 0 nmol
L. fermentum
  Aminopeptidase activity: 2 nmol
Lactobacillus casei; strain ATCC 7469
  Aminopeptidase activity: 0 nmol
Lactobacillus casei; strain ATCC 11578
  Aminopeptidase activity: 2 nmol
Lactobacillus casei; strain ATCC 11582
  Aminopeptidase activity: 1 nmol
S. salivarius; strain ATCC 9759
  Aminopeptidase activity: 0 nmol
S. salivarius; strain ATCC 25975
  Aminopeptidase activity: 0 nmol
